Assay results as given in the supplement of paper PMC10307832.

Assays:
Assay in all cases: relative viability (nuclei count vs DMSO), 5 days (fraction); higher = more cells survive
Tivantinib + Linsitinib = compound: O=C1NC(=O)[C@@H](c2cn3c4c(cccc24)CCC3)[C@@H]1c1c[nH]c2ccccc12 [Tivantinib] + C[C@]1(O)C[C@@H](c2nc(-c3ccc4ccc(-c5ccccc5)nc4c3)c3c(N)nccn32)C1 [Linsitinib] (partner 1 µM)
How it was run: (§1)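 Lung cancer cell lines, seeded in 1536-well plates, were treated the following day by pin tool with a single drug or with five library-drug doses (not always all listed) in √10 steps on top of a fixed anchor-drug dose. Cells were fixed and nuclei stained in one step after 5 days, and nuclei were counted. Relative viability is the nuclei count for treated wells divided by that for vehicle wells, reported as medians of duplicate plates.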

Tivantinib + Navitoclax = compound: O=C1NC(=O)[C@@H](c2cn3c4c(cccc24)CCC3)[C@@H]1c1c[nH]c2ccccc12 [Tivantinib] + CC1(C)CCC(c2ccc(Cl)cc2)=C(CN2CCN(c3ccc(C(=O)NS(=O)(=O)c4ccc(N[C@H](CCN5CCOCC5)CSc5ccccc5)c(S(=O)(=O)C(F)(F)F)c4)cc3)CC2)C1 [Navitoclax] (partner 0.5 µM)
How it was run: as §1

Crenolanib + Alpelisib = compound: CC1(COc2ccc3c(c2)ncn3-c2ccc3cccc(N4CCC(N)CC4)c3n2)COC1 [Crenolanib] + Cc1nc(NC(=O)N2CCC[C@H]2C(N)=O)sc1-c1ccnc(C(C)(C)C(F)(F)F)c1 [Alpelisib] (partner 2 µM)
How it was run: as §1

Tivantinib + Palbociclib = compound: O=C1NC(=O)[C@@H](c2cn3c4c(cccc24)CCC3)[C@@H]1c1c[nH]c2ccccc12 [Tivantinib] + CC(=O)c1c(C)c2cnc(Nc3ccc(N4CCNCC4)cn3)nc2n(C2CCCC2)c1=O [Palbociclib] (partner 0.5 µM)
How it was run: as §1

UMC-11
relative viability (Tivantinib + Linsitinib; first compound 0.01 µM): 0.974
relative viability (Tivantinib + Linsitinib; first compound 0.03162 µM): 0.979
relative viability (Tivantinib + Linsitinib; first compound 0.1 µM): 0.943
relative viability (Tivantinib + Linsitinib; first compound 0.3162 µM): 1
relative viability (Tivantinib + Navitoclax; first compound 0.01 µM): 0.316
relative viability (Tivantinib + Navitoclax; first compound 0.03162 µM): 0.334
relative viability (Tivantinib + Navitoclax; first compound 0.1 µM): 0.29
relative viability (Tivantinib + Navitoclax; first compound 0.3162 µM): 0.34
relative viability (Crenolanib + Alpelisib; first compound 0.01 µM): 1.06
relative viability (Crenolanib + Alpelisib; first compound 0.03162 µM): 0.958
relative viability (Crenolanib + Alpelisib; first compound 0.1 µM): 0.956
relative viability (Crenolanib + Alpelisib; first compound 0.3162 µM): 1.14
relative viability (Crenolanib + Alpelisib; first compound 1 µM): 0.989
relative viability (Tivantinib + Palbociclib; first compound 0.01 µM): 0.354
relative viability (Tivantinib + Palbociclib; first compound 0.03162 µM): 0.332
relative viability (Tivantinib + Palbociclib; first compound 0.1 µM): 0.314
relative viability (Tivantinib + Palbociclib; first compound 0.3162 µM): 0.311
